In patent US10570122B2, “Compounds with anti-tumoral activity” (AB Science, priority 2015, dated 2020):

How the values were obtained:
HL60 = assay: CellTiter-Blue cell-based survival/proliferation assay, HL60; settings: Homo sapiens, HL-60, Leukemia cell line HL60, 48 h, read-out: Anti-tumoral activity (measured IC50) HL60
Procedure, shortened: (§1)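 Tenfold compound dilutions (0–10 μM) were added to 1·10^4 cells/well. Plates incubated 48 h at 37 °C. CellTiter-Blue reduction (4 h, 37 °C) was read as fluorescence at 590 nm, background-corrected with a cell-free blank.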

HUT78 = assay: CellTiter-Blue cell-based survival/proliferation assay, HUT78; settings: Homo sapiens, Lymphoma cell line HUT78, 48 h, read-out: Anti-tumoral activity (measured IC50) HUT78
Procedure, shortened: as §1

KARPAS299 = assay: CellTiter-Blue cell-based survival/proliferation assay, KARPAS299; settings: Homo sapiens, KARPAS-299, Lymphoma cell line KARPAS299, 48 h, read-out: Anti-tumoral activity (measured IC50) KARPAS299
Procedure, shortened: as §1

REC1 = assay: CellTiter-Blue cell-based survival/proliferation assay, REC1; settings: Homo sapiens, Lymphoma cell line REC1, 48 h, read-out: Anti-tumoral activity (measured IC50) REC1
Procedure, shortened: as §1

OPM2 = assay: CellTiter-Blue cell-based survival/proliferation assay, OPM2; settings: Homo sapiens, OPM-2, Myeloma cell line OPM2, 48 h, read-out: Anti-tumoral activity (measured IC50) OPM2
Procedure, shortened: as §1

A375 = assay: CellTiter-Blue cell-based survival/proliferation assay, A375; settings: Homo sapiens, A-375; A375 melanoma cell line, 48 h
Procedure: (§2) Cell-Based Proliferation Screening of Compounds
(§3) CellTiter-Blue cell-based survival/proliferation assay (Promega G8080) was performed on tumor cell lines. A total of 1·10^4 cells/well/50 μl were seeded in a 96-wells plate. Treatment was initiated by addition of a 2× drug solution of 1/10 serial dilutions ranging from 0 to 10 μM. Cells were grown for 48 h at 37° C. and then incubated with 10 μl/well of Promega CellTiter-Bleue reagent for 4 h at 37° C. The amount of resorufin dye formed was quantified by its fluorescence emission at 590 nm using a scanning multiwell spectrophotometer (OPTIMA, BMG labtech, France). A blank well without cells was used as a background control for the spectrophotometer.

A4513 = assay: CellTiter-Blue cell-based survival/proliferation assay, A4513; settings: Homo sapiens; A4513 Ewing cell line, 48 h
Procedure: as §2, §3

A498 = assay: CellTiter-Blue cell-based survival/proliferation assay, A498; settings: Homo sapiens; A498 kidney tumor cell line, 48 h
Procedure, shortened: as §1

A549 = assay: CellTiter-Blue cell-based survival/proliferation assay, A549; settings: Homo sapiens; A549 lung tumor cell line, 48 h
Procedure, shortened: as §1

ACHN = assay: CellTiter-Blue cell-based survival/proliferation assay, ACHN; settings: Homo sapiens; ACHN kidney tumor cell line, 48 h
Procedure, shortened: as §1

AGS = assay: CellTiter-Blue cell-based survival/proliferation assay, AGS; settings: Homo sapiens; AGS stomach tumor cell line, 48 h
Procedure, shortened: as §1

BT20 = assay: CellTiter-Blue cell-based survival/proliferation assay, BT20; settings: Homo sapiens, BT-20; BT20 breast tumor cell line, 48 h
Procedure, shortened: as §1

BXPC3 = assay: CellTiter-Blue cell-based survival/proliferation assay, BXPC3; settings: Homo sapiens, BXPC-3; BXPC3 pancreas tumor cell line, 48 h
Procedure, shortened: as §1

CALU6 = assay: CellTiter-Blue cell-based survival/proliferation assay, CALU6; settings: Homo sapiens, Calu-6; CALU6 lung tumor cell line, 48 h
Procedure, shortened: as §1

CLS354 = assay: CellTiter-Blue cell-based survival/proliferation assay, CLS354; settings: Homo sapiens, CLS-354; CLS354_4 head & neck tumor cell line, 48 h
Procedure, shortened: as §1

DLD1 = assay: CellTiter-Blue cell-based survival/proliferation assay, DLD1; settings: Homo sapiens, DLD-1; DLD_1 colorectal tumor cell line, 48 h
Procedure, shortened: as §1

DU145 = assay: CellTiter-Blue cell-based survival/proliferation assay, DU145; settings: Homo sapiens, DU-145; DU145 prostate tumor cell line, 48 h
Procedure, shortened: as §1

H1299 = assay: CellTiter-Blue cell-based survival/proliferation assay, H1299; settings: Homo sapiens, NCI-H1299; H1299 lung tumor cell line, 48 h
Procedure, shortened: as §1

HCT116 = assay: CellTiter-Blue cell-based survival/proliferation assay, HCT116; settings: Homo sapiens, HCT-116; HCT116 colorectal tumor cell line, 48 h
Procedure, shortened: as §1

HEP2 = assay: CellTiter-Blue cell-based survival/proliferation assay, HEP2; settings: Homo sapiens, HEp-2; HEP2 head & neck tumor cell line, 48 h
Procedure, shortened: as §1

HEPG2 = assay: CellTiter-Blue cell-based survival/proliferation assay, HEPG2; settings: Homo sapiens; HEPG2 liver tumor cell line, 48 h
Procedure, shortened: as §1

HGC27 = assay: CellTiter-Blue cell-based survival/proliferation assay, HGC27; settings: Homo sapiens, HGC-27; HGC27 stomach tumor cell line, 48 h
Procedure, shortened: as §1

MDAMB231 = assay: CellTiter-Blue cell-based survival/proliferation assay, MDAMB231; settings: Homo sapiens, MDA-MB-231; MDAMB231 breast tumor cell line, 48 h
Procedure, shortened: as §1

MELWO = assay: CellTiter-Blue cell-based survival/proliferation assay, MELWO; settings: Homo sapiens; MEL_WO melanoma cell line, 48 h
Procedure: as §2, §3

MESSA = assay: CellTiter-Blue cell-based survival/proliferation assay, MESSA; settings: Homo sapiens, MES-SA; MESSA ovary tumor cell line, 48 h
Procedure, shortened: as §1

PANC1 = assay: CellTiter-Blue cell-based survival/proliferation assay, PANC1; settings: Homo sapiens, PANC-1; PANC_1 pancreas tumor cell line, 48 h
Procedure, shortened: as §1

PC3 = assay: CellTiter-Blue cell-based survival/proliferation assay, PC3; settings: Homo sapiens, PC-3; PC3 prostate tumor cell line, 48 h
Procedure, shortened: as §1

PLCPRF5 = assay: CellTiter-Blue cell-based survival/proliferation assay, PLCPRF5; settings: Homo sapiens, PLC-PRF-5; PLC_PRF5 liver tumor cell line, 48 h
Procedure, shortened: as §1

SW579 = assay: CellTiter-Blue cell-based survival/proliferation assay, SW579; settings: Homo sapiens; SW579 head & neck tumor cell line, 48 h
Procedure, shortened: as §1

TOV112D = assay: CellTiter-Blue cell-based survival/proliferation assay, TOV112D; settings: Homo sapiens; TOV112D ovary tumor cell line, 48 h
Procedure, shortened: as §1

U118 = assay: CellTiter-Blue cell-based survival/proliferation assay, U118; settings: Homo sapiens; U118 glioblastoma cell line, 48 h
Procedure: as §2, §3

U2OS = assay: CellTiter-Blue cell-based survival/proliferation assay, U2OS; settings: Homo sapiens; U2OS osteosarcoma cell line, 48 h
Procedure: as §2, §3

U87MG = assay: CellTiter-Blue cell-based survival/proliferation assay, U87MG; settings: Homo sapiens, U-87 MG; U87_MG glioblastoma cell line, 48 h
Procedure: as §2, §3

| Compound | IC50 (HL60) | IC50 (HUT78) | IC50 (KARPAS299) | IC50 (REC1) | IC50 (OPM2) | IC50 (A375) | IC50 (A4513) | IC50 (A498) | IC50 (A549) | IC50 (ACHN) | IC50 (AGS) | IC50 (BT20) | IC50 (BXPC3) | IC50 (CALU6) | IC50 (CLS354) | IC50 (DLD1) | IC50 (DU145) | IC50 (H1299) | IC50 (HCT116) | IC50 (HEP2) | also measured |
| --- | --- | --- | --- | --- | --- | --- | --- | --- | --- | --- | --- | --- | --- | --- | --- | --- | --- | --- | --- | --- | --- |
| COc1ccc(C)c(Nc2ncc(-c3ccc(-n4cccn4)nc3)o2)c1 [Example 001, (5-Methoxy-2-methyl-phenyl)-[5-(6-pyrazol-1-yl-pyridin-3-yl)-oxazol-2-yl]-amine] | > 1000 nM | > 1000 nM | 500 to 1000 nM | 500 to 1000 nM | > 1000 nM | > 1000 nM | > 1000 nM | > 1000 nM | > 1000 nM | > 1000 nM | > 1000 nM | > 1000 nM | > 1000 nM | > 1000 nM | > 1000 nM | > 1000 nM | > 1000 nM | > 1000 nM | > 1000 nM | > 1000 nM | IC50 (HEPG2): > 1000 nM; IC50 (HGC27): > 1000 nM; IC50 (MDAMB231): > 1000 nM; IC50 (MELWO): > 1000 nM; IC50 (MESSA): > 1000 nM; IC50 (PANC1): > 1000 nM; IC50 (PC3): > 1000 nM; IC50 (PLCPRF5): > 1000 nM; IC50 (SW579): > 1000 nM; IC50 (TOV112D): > 1000 nM; IC50 (U118): > 1000 nM; IC50 (U2OS): > 1000 nM; IC50 (U87MG): > 1000 nM |
| CCOCc1ccc(C)c(Nc2ncc(-c3ccc(-n4cccn4)c(OC)c3)o2)c1 [Example 002, (5-Ethoxymethyl-2-methyl-phenyl)-[5-(3-methoxy-4-pyrazol-1-yl-phenyl)-oxazol-2-yl]-amine] | > 1000 nM | > 1000 nM | > 1000 nM | > 1000 nM | > 1000 nM | > 1000 nM | > 1000 nM | > 1000 nM | > 1000 nM | > 1000 nM | > 1000 nM | > 1000 nM | > 1000 nM | > 1000 nM | > 1000 nM | > 1000 nM | > 1000 nM | > 1000 nM | > 1000 nM | > 1000 nM | IC50 (HEPG2): > 1000 nM; IC50 (HGC27): > 1000 nM; IC50 (MDAMB231): > 1000 nM; IC50 (MELWO): > 1000 nM; IC50 (MESSA): > 1000 nM; IC50 (PANC1): > 1000 nM; IC50 (PC3): > 1000 nM; IC50 (PLCPRF5): > 1000 nM; IC50 (SW579): > 1000 nM; IC50 (TOV112D): > 1000 nM; IC50 (U118): > 1000 nM; IC50 (U2OS): > 1000 nM; IC50 (U87MG): > 1000 nM |
| CCOCc1ccc(C)c(Nc2ncc(-c3ccc(-n4cccn4)cc3)s2)c1 [Example 004, (5-Ethoxymethyl-2-methyl-phenyl)-[5-(4-pyrazol-1-yl-phenyl)-thiazol-2-yl]-amine] | > 1000 nM | > 1000 nM | > 1000 nM | > 1000 nM | > 1000 nM | > 1000 nM | > 1000 nM | > 1000 nM | > 1000 nM | > 1000 nM | > 1000 nM | > 1000 nM | > 1000 nM | > 1000 nM | > 1000 nM | > 1000 nM | > 1000 nM | > 1000 nM | > 1000 nM | > 1000 nM | IC50 (HEPG2): > 1000 nM; IC50 (HGC27): > 1000 nM; IC50 (MDAMB231): > 1000 nM; IC50 (MELWO): > 1000 nM; IC50 (MESSA): > 1000 nM; IC50 (PANC1): > 1000 nM; IC50 (PC3): > 1000 nM; IC50 (PLCPRF5): > 1000 nM; IC50 (SW579): > 1000 nM; IC50 (TOV112D): > 1000 nM; IC50 (U118): > 1000 nM; IC50 (U2OS): > 1000 nM; IC50 (U87MG): > 1000 nM |
